Values quoted from earlier work as cited in patent US20220087960A1, “Oral Pharmaceutical Immediate Release Composition” (Aardvark Therapeutics Inc., priority 2020, published 2022).

System: human TAS2Rs (TAS2R 4, 8, 10, 13, 39, 43, 46, and 47)
Settings: cited from earlier work

**Q.** Which “activation of human TAS2Rs” value does the source give for `CC[N+](CC)(CC(=O)Nc1c(C)cccc1C)Cc1ccccc1.O=C([O-])c1ccccc1` [DB, benzyl-[2-(2,6-dimethylanilino)-2-oxoethyl]-diethylazanium benzoate] here?
**A.** activates to varying degrees eight human TAS2Rs
